Laboratory results taken from ChEMBL document CHEMBL3132769, “Fragment growing to retain or alter the selectivity of anchored kinase hinge-binding fragments” (Medchemcomm, 2014).

Assays:
Homo sapiens = species on record: Homo sapiens; test: Inhibition of human full length PKA expressed in baculovirus assessed as substrate phosphorylation using fluorescence-labelled peptides as substrate at 0.06 uM after 90 mins by microfluidic peptide phosphorylation assay
[1] = target: T1, cGMP-dependent protein kinase 1 (Homo sapiens) (UniProt Q13976); test: Inhibition of human full length PKG-1beta expressed in baculovirus assessed as substrate phosphorylation using fluorescence-labelled peptides as substrate at 70 uM after 90 mins by microfluidic peptide phosphorylation assay
T1 sequence (whole entry): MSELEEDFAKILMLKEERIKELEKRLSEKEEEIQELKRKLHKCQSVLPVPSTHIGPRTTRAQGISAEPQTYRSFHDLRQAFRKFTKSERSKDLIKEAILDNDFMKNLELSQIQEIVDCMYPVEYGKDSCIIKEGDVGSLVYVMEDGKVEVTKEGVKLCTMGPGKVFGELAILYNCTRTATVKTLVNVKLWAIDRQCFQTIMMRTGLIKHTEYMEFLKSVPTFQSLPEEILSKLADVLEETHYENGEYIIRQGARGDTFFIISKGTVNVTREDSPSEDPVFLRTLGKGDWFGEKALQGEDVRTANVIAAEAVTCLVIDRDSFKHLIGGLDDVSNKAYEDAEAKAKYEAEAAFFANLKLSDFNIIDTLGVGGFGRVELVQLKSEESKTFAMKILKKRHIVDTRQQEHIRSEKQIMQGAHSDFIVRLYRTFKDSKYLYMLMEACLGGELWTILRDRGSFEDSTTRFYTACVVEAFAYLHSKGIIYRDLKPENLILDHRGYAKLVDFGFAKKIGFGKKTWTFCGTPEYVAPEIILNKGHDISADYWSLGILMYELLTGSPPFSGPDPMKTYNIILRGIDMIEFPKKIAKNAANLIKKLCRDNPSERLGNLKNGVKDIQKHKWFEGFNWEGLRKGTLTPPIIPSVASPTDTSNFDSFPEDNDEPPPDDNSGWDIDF

[2] = target: T2, Mitogen-activated protein kinase 13 (Homo sapiens) (UniProt O15264); test: Inhibition of human full length p38 delta expressed in Escherichia coli cell assessed as substrate phosphorylation using fluorescence-labelled peptides as substrate at 70 uM after 90 mins by microfluidic peptide phosphorylation assay
T2 sequence (whole entry): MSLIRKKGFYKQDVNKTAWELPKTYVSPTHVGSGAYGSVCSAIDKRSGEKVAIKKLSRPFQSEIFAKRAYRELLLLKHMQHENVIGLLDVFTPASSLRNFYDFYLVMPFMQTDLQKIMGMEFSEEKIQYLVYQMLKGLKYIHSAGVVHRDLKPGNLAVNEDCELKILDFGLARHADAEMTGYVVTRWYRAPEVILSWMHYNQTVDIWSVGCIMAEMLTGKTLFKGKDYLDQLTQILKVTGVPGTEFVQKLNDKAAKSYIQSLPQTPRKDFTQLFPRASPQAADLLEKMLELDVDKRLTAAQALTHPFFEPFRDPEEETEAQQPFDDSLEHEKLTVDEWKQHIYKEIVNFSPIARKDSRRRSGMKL

[3] = target: Ribosomal protein S6 kinase alpha-4 (Homo sapiens) (UniProt O75676); test: Inhibition of human full length MSK2 expressed in baculovirus assessed as substrate phosphorylation using fluorescence-labelled peptides as substrate at 0.2 uM after 90 mins by microfluidic peptide phosphorylation assay
[4] = test system: Tyrosine-protein kinase ABL1 (Homo sapiens), P00519 [Q252H]; test: Inhibition of human truncated ABL Q252H mutant expressed in baculovirus assessed as substrate phosphorylation using fluorescence-labelled peptides as substrate at 0.2 uM after 90 mins by microfluidic peptide phosphorylation assay
[5] = target: Protein kinase C delta type (Homo sapiens) (UniProt Q05655); test: Inhibition of human truncated PKC delta expressed in baculovirus assessed as substrate phosphorylation using fluorescence-labelled peptides as substrate at 95 uM after 90 mins by microfluidic peptide phosphorylation assay
[6] = target: Ribosomal protein S6 kinase alpha-4 (Homo sapiens) (UniProt O75676); test: Inhibition of human full length MSK2 expressed in baculovirus assessed as substrate phosphorylation using fluorescence-labelled peptides as substrate at 9 uM after 90 mins by microfluidic peptide phosphorylation assay
[7] = target: T3, Serine/threonine-protein kinase Sgk1 (Homo sapiens) (UniProt O00141); test: Inhibition of human truncated SGK1 expressed in baculovirus assessed as substrate phosphorylation using fluorescence-labelled peptides as substrate at 9 uM after 90 mins by microfluidic peptide phosphorylation assay
T3 sequence (whole entry): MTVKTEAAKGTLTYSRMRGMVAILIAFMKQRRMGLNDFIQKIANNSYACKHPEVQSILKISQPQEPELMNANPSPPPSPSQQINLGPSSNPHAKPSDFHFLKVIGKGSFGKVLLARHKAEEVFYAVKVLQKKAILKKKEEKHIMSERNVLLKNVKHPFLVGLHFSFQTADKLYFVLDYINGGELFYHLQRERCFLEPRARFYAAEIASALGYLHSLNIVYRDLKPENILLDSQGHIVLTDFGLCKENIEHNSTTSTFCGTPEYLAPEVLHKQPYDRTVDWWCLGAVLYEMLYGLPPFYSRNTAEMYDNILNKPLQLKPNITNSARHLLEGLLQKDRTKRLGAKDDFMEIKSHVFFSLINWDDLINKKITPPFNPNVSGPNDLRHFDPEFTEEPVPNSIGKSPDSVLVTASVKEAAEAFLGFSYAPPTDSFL

[8] = target: Proto-oncogene tyrosine-protein kinase Src (Homo sapiens) (UniProt P12931); test: Inhibition of human full length SRC expressed in baculovirus assessed as substrate phosphorylation using fluorescence-labelled peptides as substrate at 1000 uM after 90 mins by microfluidic peptide phosphorylation assay
[9] = target: Glycogen synthase kinase-3 beta (Homo sapiens) (UniProt P49841); test: Inhibition of human full length GSK-3 beta expressed in baculovirus assessed as substrate phosphorylation using fluorescence-labelled peptides as substrate at 2 uM after 90 mins by microfluidic peptide phosphorylation assay
[10] = target: Aurora kinase B (Homo sapiens) (UniProt Q96GD4); test: Inhibition of human full length AurB expressed in baculovirus assessed as substrate phosphorylation using fluorescence-labelled peptides as substrate at 2 uM after 90 mins by microfluidic peptide phosphorylation assay
[11] = target: Insulin-like growth factor 1 receptor (Homo sapiens) (UniProt P08069); test: Inhibition of human IGF1R catalytic domain expressed in baculovirus assessed as substrate phosphorylation using fluorescence-labelled peptides as substrate at 2 uM after 90 mins by microfluidic peptide phosphorylation assay
[12] = target: Dual specificity tyrosine-phosphorylation-regulated kinase 1A (Rattus norvegicus) (UniProt Q63470); test: Inhibition of rat full length DYRK1a expressed in Escherichia coli cell assessed as substrate phosphorylation using fluorescence-labelled peptides as substrate at […] after 90 mins by microfluidic peptide phosphorylation assay
[13] = target: Hepatocyte growth factor receptor (Homo sapiens) (UniProt P08581); test: Inhibition of human MET cytoplasmic domain expressed in baculovirus assessed as substrate phosphorylation using fluorescence-labelled peptides as substrate at […] after 90 mins by microfluidic peptide phosphorylation assay
[14] = test system: Tyrosine-protein kinase ABL1 (Homo sapiens), P00519 [T315I]; details: 0.1 uM

Ribosomal protein S6 kinase alpha-4 (Homo sapiens), sequence (O75676 whole entry, looked up, the tested form may be a part): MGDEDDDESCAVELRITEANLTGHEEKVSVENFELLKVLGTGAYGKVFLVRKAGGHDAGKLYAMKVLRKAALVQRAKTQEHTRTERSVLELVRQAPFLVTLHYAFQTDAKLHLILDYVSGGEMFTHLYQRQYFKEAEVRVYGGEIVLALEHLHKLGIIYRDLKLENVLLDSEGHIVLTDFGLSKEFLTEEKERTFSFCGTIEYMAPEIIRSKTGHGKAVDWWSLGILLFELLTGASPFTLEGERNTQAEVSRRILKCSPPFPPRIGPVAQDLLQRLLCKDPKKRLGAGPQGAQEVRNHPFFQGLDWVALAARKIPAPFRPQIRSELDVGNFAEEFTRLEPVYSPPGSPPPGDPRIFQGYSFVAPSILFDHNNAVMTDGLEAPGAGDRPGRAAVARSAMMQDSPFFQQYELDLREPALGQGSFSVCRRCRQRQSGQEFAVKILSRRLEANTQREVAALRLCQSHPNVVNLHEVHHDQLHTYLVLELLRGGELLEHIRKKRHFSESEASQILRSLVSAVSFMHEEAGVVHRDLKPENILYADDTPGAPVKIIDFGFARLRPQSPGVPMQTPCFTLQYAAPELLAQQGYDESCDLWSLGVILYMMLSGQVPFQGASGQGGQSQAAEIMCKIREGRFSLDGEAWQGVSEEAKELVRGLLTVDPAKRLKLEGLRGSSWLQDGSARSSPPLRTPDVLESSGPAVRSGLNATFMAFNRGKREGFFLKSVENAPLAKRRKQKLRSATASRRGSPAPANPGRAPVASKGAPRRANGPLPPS
Hepatocyte growth factor receptor (Homo sapiens), sequence (P08581 whole entry, the tested form may be a part): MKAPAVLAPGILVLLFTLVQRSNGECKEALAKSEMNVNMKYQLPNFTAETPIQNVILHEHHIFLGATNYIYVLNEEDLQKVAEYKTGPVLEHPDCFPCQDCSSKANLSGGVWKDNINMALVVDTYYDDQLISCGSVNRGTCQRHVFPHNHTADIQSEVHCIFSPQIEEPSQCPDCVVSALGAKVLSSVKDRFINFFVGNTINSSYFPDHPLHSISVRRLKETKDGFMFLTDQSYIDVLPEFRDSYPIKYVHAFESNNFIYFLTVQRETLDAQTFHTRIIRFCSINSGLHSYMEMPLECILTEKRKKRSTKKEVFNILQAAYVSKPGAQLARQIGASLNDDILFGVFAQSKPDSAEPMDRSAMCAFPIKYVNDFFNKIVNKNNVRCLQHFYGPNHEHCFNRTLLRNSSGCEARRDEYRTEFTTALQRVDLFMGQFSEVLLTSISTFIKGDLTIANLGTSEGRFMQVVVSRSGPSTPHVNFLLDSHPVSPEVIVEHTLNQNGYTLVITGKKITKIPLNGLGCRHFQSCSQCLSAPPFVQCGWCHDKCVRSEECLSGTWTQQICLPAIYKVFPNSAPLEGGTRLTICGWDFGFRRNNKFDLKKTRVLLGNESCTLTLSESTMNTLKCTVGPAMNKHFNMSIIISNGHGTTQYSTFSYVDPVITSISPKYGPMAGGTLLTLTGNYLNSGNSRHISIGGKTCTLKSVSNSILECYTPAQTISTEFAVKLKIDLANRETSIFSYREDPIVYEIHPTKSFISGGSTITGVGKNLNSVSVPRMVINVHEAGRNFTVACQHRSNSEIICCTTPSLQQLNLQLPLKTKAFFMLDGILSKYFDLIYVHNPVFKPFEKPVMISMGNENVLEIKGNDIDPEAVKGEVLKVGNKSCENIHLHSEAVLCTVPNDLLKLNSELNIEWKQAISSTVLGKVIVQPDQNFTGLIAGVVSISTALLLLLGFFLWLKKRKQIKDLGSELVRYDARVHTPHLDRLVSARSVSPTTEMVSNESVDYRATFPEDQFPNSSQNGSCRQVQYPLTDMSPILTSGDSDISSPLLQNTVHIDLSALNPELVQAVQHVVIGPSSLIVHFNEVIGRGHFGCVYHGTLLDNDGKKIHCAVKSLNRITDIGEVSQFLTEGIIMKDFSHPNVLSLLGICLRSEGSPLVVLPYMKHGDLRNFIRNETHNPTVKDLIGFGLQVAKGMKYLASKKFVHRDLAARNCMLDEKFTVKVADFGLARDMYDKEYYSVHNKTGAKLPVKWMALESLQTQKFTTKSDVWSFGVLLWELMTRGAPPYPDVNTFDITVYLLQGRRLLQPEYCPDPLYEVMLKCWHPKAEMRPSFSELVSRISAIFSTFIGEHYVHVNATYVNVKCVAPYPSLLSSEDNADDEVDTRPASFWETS
Aurora kinase B (Homo sapiens), sequence (Q96GD4 whole entry, the tested form may be a part): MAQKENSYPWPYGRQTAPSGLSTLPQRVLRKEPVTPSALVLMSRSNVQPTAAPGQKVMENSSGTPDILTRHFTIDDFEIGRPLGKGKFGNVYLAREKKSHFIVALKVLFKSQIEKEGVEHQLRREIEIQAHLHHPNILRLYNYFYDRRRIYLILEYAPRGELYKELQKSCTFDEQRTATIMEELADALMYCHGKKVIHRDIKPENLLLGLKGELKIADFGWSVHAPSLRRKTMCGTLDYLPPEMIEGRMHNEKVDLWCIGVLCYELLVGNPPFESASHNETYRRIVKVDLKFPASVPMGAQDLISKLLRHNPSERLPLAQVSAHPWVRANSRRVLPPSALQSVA
Protein kinase C delta type (Homo sapiens), sequence (Q05655 whole entry, looked up, the tested form may be a part): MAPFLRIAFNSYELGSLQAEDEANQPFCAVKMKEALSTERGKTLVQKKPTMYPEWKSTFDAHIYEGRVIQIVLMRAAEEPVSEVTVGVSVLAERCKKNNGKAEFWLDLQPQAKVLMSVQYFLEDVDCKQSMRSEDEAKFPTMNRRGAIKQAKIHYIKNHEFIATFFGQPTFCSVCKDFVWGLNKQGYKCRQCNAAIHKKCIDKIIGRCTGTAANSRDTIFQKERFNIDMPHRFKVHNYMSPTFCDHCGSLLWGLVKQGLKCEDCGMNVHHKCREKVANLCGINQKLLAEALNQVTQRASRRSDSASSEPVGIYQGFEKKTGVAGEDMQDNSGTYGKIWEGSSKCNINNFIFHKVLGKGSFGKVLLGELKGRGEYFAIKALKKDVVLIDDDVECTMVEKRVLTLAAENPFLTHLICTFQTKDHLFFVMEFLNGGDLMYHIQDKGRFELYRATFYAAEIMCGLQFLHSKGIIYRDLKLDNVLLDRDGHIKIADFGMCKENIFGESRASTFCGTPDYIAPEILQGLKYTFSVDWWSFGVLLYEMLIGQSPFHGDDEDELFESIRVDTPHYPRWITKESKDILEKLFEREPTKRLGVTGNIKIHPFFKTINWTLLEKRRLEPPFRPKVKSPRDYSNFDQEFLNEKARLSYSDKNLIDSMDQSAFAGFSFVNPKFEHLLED
Proto-oncogene tyrosine-protein kinase Src (Homo sapiens), sequence (P12931 2-536 limits assumed): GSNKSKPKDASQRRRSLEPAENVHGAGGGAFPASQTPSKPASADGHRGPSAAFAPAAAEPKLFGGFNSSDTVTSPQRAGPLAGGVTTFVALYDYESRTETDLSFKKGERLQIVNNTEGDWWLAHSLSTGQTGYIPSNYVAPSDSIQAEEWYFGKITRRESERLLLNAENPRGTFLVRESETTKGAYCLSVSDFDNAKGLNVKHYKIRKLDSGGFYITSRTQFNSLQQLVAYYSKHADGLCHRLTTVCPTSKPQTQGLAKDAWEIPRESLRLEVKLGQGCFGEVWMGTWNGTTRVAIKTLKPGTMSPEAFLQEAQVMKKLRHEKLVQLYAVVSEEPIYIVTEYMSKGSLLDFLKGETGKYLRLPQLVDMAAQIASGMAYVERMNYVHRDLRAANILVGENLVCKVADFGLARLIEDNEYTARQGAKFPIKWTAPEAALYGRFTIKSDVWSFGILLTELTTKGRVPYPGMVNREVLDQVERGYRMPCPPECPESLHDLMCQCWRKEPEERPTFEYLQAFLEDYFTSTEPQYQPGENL
Glycogen synthase kinase-3 beta (Homo sapiens), sequence (P49841 whole entry, looked up): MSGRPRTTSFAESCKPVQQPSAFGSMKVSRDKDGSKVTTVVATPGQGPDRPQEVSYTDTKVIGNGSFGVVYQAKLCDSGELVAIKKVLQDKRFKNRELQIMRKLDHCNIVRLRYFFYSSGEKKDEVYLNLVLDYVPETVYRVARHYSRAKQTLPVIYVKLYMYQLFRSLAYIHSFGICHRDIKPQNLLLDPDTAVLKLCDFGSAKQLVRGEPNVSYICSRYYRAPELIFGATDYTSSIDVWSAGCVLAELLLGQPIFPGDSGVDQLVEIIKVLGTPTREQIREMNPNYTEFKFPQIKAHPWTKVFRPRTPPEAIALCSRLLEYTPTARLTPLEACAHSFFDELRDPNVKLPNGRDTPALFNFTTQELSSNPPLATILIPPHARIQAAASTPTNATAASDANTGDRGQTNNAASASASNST

SMILES: NC1(Cc2ccc(Cl)cc2)CCN(c2ncnc3[nH]ccc23)CC1
- inhibition (Homo sapiens): 17%

SMILES: CNCc1ccc(-c2ncnc3[nH]cnc23)cc1
- inhibition [1]: 95.5%
- inhibition [2]: 5%

SMILES: Clc1ccc(C2(c3ccc(-c4ncnc5[nH]cnc45)cc3)CCNCC2)cc1
- inhibition [3]: 82.5%
- inhibition [4]: 0%

SMILES: NCCc1ccc(-c2ncnc3[nH]cnc23)cc1
- inhibition [5]: 72%

SMILES: NCC1CN(c2ncnc3[nH]c4cnccc4c23)CCO1 (stereo not given)
- inhibition [6]: 52%
- inhibition [7]: 51%

SMILES: c1cnc2[nH]ccc2c1
- inhibition [8]: 28.5%

SMILES: NC1CCN(c2ncnc3[nH]ccc23)CC1
- inhibition [9]: 5%
- inhibition [10]: 34%
- inhibition [11]: 0%

SMILES: COC(=O)c1cnc(Nc2cnc(C#N)cn2)cc1NCC1CCNCC1
- inhibition [12]: 1.5%
- inhibition [13]: 2.5%

SMILES: C[C@H](CN(C)C)Oc1nc(Nc2cc3cccc(Cl)c3cn2)cnc1C#N
- inhibition [14]: 0%
